Test results: patent US12173322B2, “Genome-edited induced pluripotent stem cells, and cells derived therefrom, and uses thereof” (priority 2020, dated 2024)
Where two headings read alike, the source gives them in different places.

Columns and labels:
Type in all cases: cell-based
[1] = target: T1, hKCNQ1 /mink (Homo sapiens, UniProt P51787); test: Patch clamp electrophysiology (QPatch), hKCNQ1/mink
T1 construct: Eurofins

[2] = target: T2, hKir2.1 (Homo sapiens, UniProt P63252); test: Patch clamp electrophysiology (QPatch CiPA), hKir2.1; conditions: for IC50: Antagonist, read-out: Estimated IC50
T2 construct: Eurofins
T2 sequence (P63252 1-427): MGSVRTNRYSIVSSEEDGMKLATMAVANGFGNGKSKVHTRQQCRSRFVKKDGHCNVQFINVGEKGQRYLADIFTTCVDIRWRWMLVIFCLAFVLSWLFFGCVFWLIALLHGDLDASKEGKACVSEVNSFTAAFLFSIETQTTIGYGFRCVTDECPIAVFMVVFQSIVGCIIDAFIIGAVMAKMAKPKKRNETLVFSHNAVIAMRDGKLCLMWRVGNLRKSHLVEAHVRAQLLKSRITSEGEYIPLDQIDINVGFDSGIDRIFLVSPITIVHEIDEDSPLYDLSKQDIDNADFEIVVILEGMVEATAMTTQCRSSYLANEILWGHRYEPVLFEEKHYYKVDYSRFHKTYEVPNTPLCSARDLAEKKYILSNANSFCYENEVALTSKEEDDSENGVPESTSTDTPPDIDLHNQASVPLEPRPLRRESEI
Method: Replated hiPSC-CMs were loaded with a fluorescent calcium dye and calcium transients were recorded before and after peptide addition.

[3] = target: T3, hKv4.3/hKChIP2 (Homo sapiens, UniProt Q9UK17); test: Patch clamp electrophysiology (QPatch CiPA), hKv4.3/hKChIP2; conditions: for IC50: Antagonist, read-out: Estimated IC50
T3 construct: Eurofins
T3 sequence (Q9UK17 1-655): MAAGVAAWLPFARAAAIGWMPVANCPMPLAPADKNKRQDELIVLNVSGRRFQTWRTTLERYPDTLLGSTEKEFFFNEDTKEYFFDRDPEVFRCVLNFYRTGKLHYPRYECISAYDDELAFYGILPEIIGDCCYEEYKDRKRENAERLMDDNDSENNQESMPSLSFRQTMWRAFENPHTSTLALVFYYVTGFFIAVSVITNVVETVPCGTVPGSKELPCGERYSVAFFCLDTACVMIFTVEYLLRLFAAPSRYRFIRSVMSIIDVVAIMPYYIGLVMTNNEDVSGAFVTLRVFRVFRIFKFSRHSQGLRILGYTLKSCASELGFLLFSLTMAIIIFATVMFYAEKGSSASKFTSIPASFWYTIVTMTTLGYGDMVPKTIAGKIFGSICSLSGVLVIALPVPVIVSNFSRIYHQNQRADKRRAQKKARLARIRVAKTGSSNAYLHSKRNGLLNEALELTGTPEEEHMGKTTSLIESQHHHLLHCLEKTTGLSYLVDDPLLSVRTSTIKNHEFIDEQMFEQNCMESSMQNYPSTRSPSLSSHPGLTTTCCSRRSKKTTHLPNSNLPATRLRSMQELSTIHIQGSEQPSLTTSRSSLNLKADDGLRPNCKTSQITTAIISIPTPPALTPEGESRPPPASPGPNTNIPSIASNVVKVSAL
T3 sequence (Q9NS61 1-270 partner): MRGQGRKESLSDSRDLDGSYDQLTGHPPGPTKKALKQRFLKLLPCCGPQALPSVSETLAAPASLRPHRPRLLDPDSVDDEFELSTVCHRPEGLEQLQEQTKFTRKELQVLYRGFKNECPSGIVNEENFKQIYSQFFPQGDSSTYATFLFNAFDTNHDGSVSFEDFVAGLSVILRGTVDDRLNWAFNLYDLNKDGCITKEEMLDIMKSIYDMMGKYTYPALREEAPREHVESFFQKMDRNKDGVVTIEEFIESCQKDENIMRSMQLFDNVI

[4] = target: T4, hCav1.2 (Homo sapiens, UniProt Q13936); test: Patch clamp electrophysiology (QPatch CiPA), hCav1.2
T4 construct: Eurofins

[5] = target: T5, hNav1.5 (Homo sapiens, UniProt Q14524); test: Patch clamp electrophysiology (QPatch CiPA), hNav1.5
T5 construct: Eurofins

[6] = End, read-out: % inhibition mean
[7] = Peak, read-out: % inhibition mean
[8] = Peak, read-out: % inhibition n1
[9] = Peak, read-out: % inhibition n2

T4 sequence (Q13936 whole entry): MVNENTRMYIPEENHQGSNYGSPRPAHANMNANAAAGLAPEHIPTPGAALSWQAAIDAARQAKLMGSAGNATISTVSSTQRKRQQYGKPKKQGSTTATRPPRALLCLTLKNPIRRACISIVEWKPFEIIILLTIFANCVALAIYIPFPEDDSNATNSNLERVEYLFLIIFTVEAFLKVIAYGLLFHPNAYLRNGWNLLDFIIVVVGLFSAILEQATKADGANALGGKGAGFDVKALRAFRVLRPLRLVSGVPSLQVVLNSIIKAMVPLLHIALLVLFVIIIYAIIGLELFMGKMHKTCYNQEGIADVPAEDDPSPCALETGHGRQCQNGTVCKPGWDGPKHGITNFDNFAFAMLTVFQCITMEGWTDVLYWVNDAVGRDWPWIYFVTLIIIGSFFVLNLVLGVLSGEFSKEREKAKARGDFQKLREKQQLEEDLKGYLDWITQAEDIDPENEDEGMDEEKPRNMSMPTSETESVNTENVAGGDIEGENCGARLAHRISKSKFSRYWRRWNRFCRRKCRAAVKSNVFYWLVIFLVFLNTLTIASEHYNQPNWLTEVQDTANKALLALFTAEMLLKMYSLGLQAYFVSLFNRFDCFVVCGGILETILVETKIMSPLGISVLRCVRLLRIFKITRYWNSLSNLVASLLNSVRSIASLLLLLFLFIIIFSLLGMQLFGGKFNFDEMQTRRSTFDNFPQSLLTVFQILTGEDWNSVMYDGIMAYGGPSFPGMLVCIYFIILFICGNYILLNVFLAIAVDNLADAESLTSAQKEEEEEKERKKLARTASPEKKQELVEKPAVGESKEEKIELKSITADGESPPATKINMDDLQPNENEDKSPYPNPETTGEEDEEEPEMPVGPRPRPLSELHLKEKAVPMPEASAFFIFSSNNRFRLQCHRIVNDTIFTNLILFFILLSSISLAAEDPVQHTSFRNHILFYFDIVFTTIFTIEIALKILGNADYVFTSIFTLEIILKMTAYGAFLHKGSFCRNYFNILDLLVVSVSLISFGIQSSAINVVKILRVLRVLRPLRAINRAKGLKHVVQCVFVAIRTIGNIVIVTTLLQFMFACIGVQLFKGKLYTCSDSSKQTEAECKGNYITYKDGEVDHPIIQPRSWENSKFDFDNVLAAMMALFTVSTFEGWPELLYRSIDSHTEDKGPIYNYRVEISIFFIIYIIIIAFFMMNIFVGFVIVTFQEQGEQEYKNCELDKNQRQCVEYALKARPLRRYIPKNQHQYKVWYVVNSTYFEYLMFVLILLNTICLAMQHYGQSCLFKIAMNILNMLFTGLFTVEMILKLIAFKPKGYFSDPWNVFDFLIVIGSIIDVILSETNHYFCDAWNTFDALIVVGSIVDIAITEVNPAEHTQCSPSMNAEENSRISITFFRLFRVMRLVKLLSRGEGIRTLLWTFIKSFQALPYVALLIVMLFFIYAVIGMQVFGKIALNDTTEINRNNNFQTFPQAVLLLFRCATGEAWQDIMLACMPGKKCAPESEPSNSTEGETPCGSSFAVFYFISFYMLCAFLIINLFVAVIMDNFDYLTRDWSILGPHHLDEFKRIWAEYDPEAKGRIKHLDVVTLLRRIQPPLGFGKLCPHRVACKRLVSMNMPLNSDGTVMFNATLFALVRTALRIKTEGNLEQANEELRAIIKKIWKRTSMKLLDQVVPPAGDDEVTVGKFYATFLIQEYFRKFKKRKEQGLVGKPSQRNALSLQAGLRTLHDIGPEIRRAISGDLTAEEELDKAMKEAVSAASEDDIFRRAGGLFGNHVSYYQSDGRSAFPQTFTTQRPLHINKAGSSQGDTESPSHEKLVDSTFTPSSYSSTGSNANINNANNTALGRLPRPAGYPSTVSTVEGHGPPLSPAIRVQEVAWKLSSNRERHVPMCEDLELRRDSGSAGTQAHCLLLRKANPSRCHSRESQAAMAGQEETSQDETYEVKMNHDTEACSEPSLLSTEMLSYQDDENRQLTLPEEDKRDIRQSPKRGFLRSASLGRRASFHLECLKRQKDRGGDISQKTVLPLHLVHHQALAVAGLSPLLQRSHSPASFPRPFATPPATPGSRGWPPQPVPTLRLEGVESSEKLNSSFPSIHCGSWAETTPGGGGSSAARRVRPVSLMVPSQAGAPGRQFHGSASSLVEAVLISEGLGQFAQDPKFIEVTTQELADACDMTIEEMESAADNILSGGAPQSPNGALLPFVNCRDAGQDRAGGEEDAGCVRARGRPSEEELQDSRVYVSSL
T4 sequence (Q08289 whole entry partner): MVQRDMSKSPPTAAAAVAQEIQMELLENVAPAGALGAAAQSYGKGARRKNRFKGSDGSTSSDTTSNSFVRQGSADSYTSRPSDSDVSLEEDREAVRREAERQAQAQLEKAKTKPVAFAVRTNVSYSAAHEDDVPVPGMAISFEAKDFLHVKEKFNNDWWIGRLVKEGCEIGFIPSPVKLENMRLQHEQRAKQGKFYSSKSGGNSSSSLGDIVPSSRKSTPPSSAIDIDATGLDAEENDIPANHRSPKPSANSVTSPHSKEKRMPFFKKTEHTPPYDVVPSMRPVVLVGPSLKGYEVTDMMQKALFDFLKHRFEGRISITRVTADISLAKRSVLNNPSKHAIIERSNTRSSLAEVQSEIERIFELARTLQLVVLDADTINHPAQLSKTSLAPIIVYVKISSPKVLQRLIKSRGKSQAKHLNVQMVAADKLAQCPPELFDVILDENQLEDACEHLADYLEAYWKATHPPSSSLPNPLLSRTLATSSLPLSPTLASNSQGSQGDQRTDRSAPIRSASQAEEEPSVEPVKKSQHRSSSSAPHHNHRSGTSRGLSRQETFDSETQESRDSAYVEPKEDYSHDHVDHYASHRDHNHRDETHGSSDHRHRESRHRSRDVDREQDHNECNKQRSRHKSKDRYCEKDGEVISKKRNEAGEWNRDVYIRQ
T4 sequence (P54289 25-956 partner limits assumed): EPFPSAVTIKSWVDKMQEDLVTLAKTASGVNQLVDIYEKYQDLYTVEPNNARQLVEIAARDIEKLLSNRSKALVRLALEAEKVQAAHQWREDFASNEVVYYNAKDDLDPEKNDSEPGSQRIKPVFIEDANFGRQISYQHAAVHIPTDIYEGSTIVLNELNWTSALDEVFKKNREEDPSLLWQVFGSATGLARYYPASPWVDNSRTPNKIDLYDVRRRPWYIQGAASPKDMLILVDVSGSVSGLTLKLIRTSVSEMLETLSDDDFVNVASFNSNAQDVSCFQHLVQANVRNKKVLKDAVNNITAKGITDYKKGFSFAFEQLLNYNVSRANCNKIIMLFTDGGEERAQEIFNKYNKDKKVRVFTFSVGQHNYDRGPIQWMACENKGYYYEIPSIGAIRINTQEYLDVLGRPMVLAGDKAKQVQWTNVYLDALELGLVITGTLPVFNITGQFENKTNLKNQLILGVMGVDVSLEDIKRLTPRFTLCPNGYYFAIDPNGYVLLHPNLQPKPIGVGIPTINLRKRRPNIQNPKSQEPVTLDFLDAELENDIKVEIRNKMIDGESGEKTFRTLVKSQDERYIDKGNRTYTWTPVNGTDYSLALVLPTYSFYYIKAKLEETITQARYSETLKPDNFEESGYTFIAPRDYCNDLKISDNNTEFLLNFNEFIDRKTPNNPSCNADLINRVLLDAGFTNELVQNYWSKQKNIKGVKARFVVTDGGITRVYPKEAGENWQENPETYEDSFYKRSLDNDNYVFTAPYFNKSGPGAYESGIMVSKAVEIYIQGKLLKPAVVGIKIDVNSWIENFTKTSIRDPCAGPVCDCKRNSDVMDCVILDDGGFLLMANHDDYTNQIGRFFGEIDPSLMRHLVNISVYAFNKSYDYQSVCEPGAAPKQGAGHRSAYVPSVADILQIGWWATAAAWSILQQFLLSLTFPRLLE
T4 sequence (P54289 957-1103 partner limits assumed): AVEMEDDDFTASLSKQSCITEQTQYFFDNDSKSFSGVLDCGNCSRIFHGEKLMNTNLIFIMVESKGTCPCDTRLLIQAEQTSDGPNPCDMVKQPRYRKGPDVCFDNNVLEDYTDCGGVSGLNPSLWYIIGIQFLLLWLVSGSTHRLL
T1 sequence (P51787 whole entry): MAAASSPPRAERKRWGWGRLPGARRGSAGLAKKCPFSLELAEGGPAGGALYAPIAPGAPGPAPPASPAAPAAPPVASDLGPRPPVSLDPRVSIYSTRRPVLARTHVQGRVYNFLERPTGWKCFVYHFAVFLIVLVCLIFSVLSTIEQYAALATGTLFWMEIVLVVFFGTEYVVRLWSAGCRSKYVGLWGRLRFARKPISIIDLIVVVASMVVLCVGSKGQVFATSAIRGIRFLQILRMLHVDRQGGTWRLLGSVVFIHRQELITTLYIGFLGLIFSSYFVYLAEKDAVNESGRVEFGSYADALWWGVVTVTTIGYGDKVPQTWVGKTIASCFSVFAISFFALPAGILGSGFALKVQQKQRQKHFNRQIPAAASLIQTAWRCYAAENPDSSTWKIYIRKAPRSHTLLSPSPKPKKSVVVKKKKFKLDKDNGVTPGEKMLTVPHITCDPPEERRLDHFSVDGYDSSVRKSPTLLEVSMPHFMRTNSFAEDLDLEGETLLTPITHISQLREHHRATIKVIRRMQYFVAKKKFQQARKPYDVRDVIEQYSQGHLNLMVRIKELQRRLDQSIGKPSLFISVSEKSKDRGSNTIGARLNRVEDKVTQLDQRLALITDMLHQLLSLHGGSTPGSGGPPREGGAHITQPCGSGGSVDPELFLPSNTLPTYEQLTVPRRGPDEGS

Compound: CCS(=O)(=O)N(C)[C@H]1c2cc(C#N)ccc2OC(C)(C)[C@@H]1O (racemic) [Chromanol 293B]
- % inhibition mean ([1]; 0.3 μM): 4.24%
- % inhibition n1 ([1]; 0.3 μM): 1.35%
- % inhibition n2 ([1]; 0.3 μM): 7.13%
- % inhibition mean ([1]; 1 µM): 12.25%
- % inhibition n1 ([1]; 1 µM): 9.45%
- % inhibition n2 ([1]; 1 µM): 15.04%
- % inhibition mean ([1]; 3 μM): 22.85%
- % inhibition n1 ([1]; 3 μM): 21.34%
- % inhibition n2 ([1]; 3 μM): 24.36%
- % inhibition mean ([1]; 10 µM): 40.28%
- % inhibition n1 ([1]; 10 µM): 39.37%
- % inhibition n2 ([1]; 10 µM): 41.20%
- % inhibition mean ([1]; 30 μM): 73.92%
- % inhibition n1 ([1]; 30 μM): 74.46%
- % inhibition n2 ([1]; 30 μM): 73.39%
- % inhibition mean ([1]; 100 µM): 95.80%
- % inhibition n1 ([1]; 100 µM): 96.45%
- % inhibition n2 ([1]; 100 µM): 95.16%
- IC50 ([1]; read-out: Estimated IC50): 11.5 µM

Compound: [Ba+2].[Cl-].[Cl-] [Barium, Barium Chloride]
- IC50 ([2]; End): 3.6 µM
- IC50 ([2]; Peak): 62.3 µM
- % inhibition mean ([2]; End, 0.3 μM): 7.01%
- % inhibition n1 ([2]; End, 0.3 μM): 6.49%
- % inhibition n2 ([2]; End, 0.3 μM): 7.53%
- % inhibition mean ([2]; End, 1 μM): 18.29%
- % inhibition n1 ([2]; End, 1 μM): 19.93%
- % inhibition n2 ([2]; End, 1 μM): 16.65%
- % inhibition mean ([2]; End, 3 μM): 41.38%
- % inhibition n1 ([2]; End, 3 μM): 39.87%
- % inhibition n2 ([2]; End, 3 μM): 42.88%
- % inhibition mean ([2]; End, 10 μM): 80.72%
- % inhibition n1 ([2]; End, 10 μM): 79.79%
- % inhibition n2 ([2]; End, 10 μM): 81.66%
- % inhibition mean ([2]; End, 30 μM): 93.28%
- % inhibition n1 ([2]; End, 30 μM): 93.64%
- % inhibition n2 ([2]; End, 30 μM): 92.93%
- % inhibition mean ([2]; End, 100 μM): 98.46%
- % inhibition n1 ([2]; End, 100 μM): 98.46%
- % inhibition n2 ([2]; End, 100 μM): 98.47%
- % inhibition mean ([2]; Peak, 0.3 μM): 2.37%
- % inhibition n1 ([2]; Peak, 0.3 μM): 1.78%
- % inhibition n2 ([2]; Peak, 0.3 μM): 2.96%
- % inhibition mean ([2]; Peak, 1 μM): 6.45%
- % inhibition n1 ([2]; Peak, 1 μM): 7.99%
- % inhibition n2 ([2]; Peak, 1 μM): 4.90%
- % inhibition mean ([2]; Peak, 3 μM): 12.57%
- % inhibition n1 ([2]; Peak, 3 μM): 14.88%
- % inhibition n2 ([2]; Peak, 3 μM): 10.25%
- % inhibition mean ([2]; Peak, 10 μM): 13.31%
- % inhibition n1 ([2]; Peak, 10 μM): 16.68%
- % inhibition n2 ([2]; Peak, 10 μM): 9.94%
- % inhibition mean ([2]; Peak, 30 μM): 31.99%
- % inhibition n1 ([2]; Peak, 30 μM): 38.78%
- % inhibition n2 ([2]; Peak, 30 μM): 25.19%
- % inhibition mean ([2]; Peak, 100 μM): 62.64%
- % inhibition n1 ([2]; Peak, 100 μM): 63.60%
- % inhibition n2 ([2]; Peak, 100 μM): 61.68%

Compound: O=C(NCC1CCCCN1)c1cc(OCC(F)(F)F)ccc1OCC(F)(F)F (centres unmarked) [Flecainide]
- IC50 ([3]; End): 10 µM
- IC50 ([3]; Peak): 22.5 µM
- inhibition at 0.03 µM [3, 6]: 6.93%
- inhibition at 0.03 µM ([3]; End, read-out: % inhibition n1): 5.29%
- inhibition at 0.03 µM ([3]; End, read-out: % inhibition n2): 8.57%
- inhibition at 0.3 µM [3, 6]: 7.17%
- inhibition at 0.3 µM ([3]; End, read-out: % inhibition n1): 2.84%
- inhibition at 0.3 µM ([3]; End, read-out: % inhibition n2): 11.5%
- inhibition at 3 µM [3, 6]: 26.8%
- inhibition at 3 µM ([3]; End, read-out: % inhibition n1): 25.6%
- inhibition at 3 µM ([3]; End, read-out: % inhibition n2): 27.9%
- inhibition at 30 µM [3, 6]: 71.8%
- inhibition at 30 µM ([3]; End, read-out: % inhibition n1): 69.2%
- inhibition at 30 µM ([3]; End, read-out: % inhibition n2): 74.4%
- inhibition at 300 µM [3, 6]: 90.5%
- inhibition at 300 µM ([3]; End, read-out: % inhibition n1): 90%
- inhibition at 300 µM ([3]; End, read-out: % inhibition n2): 91%
- inhibition at 0.03 µM [3, 7]: 9.2%
- inhibition at 0.03 µM [3, 8]: 7.41%
- inhibition at 0.03 µM [3, 9]: 11%
- inhibition at 0.3 µM [3, 7]: 8.4%
- inhibition at 0.3 µM [3, 8]: 4.05%
- inhibition at 0.3 µM [3, 9]: 12.8%
- inhibition at 3 µM [3, 7]: 12.6%
- inhibition at 3 µM [3, 8]: 10.6%
- inhibition at 3 µM [3, 9]: 14.5%
- inhibition at 30 µM [3, 7]: 55.2%
- inhibition at 30 µM [3, 8]: 57.5%
- inhibition at 30 µM [3, 9]: 53%
- inhibition at 300 µM [3, 7]: 97.4%
- inhibition at 300 µM [3, 8]: 97.4%
- inhibition at 300 µM [3, 9]: 97.3%

Compound: COC(=O)C1=C(C)NC(C)=C(C(=O)OC)C1c1ccccc1[N+](=O)[O-] [Nifedipine]
- inhibition at 0.001 µM ([4]; read-out: % inhibition mean): 15.1%
- inhibition at 0.01 µM ([4]; read-out: % inhibition mean): 34.8%
- inhibition at 0.1 µM ([4]; read-out: % inhibition mean): 55.7%
- inhibition at 1 µM ([4]; read-out: % inhibition mean): 61%
- inhibition at 10 µM ([4]; read-out: % inhibition mean): 83.8%
- inhibition at 100 µM ([4]; read-out: % inhibition mean): 94.8%
- inhibition at 0.001 µM ([4]; read-out: % inhibition n1): 21.6%
- inhibition at 0.01 µM ([4]; read-out: % inhibition n1): 38.2%
- inhibition at 0.1 µM ([4]; read-out: % inhibition n1): 53.1%
- inhibition at 1 µM ([4]; read-out: % inhibition n1): 56.8%
- inhibition at 10 µM ([4]; read-out: % inhibition n1): 81.4%
- inhibition at 100 µM ([4]; read-out: % inhibition n1): 95.2%
- inhibition at 0.001 µM ([4]; read-out: % inhibition n2): 8.54%
- inhibition at 0.01 µM ([4]; read-out: % inhibition n2): 31.5%
- inhibition at 0.1 µM ([4]; read-out: % inhibition n2): 58.2%
- inhibition at 1 µM ([4]; read-out: % inhibition n2): 65.2%
- inhibition at 10 µM ([4]; read-out: % inhibition n2): 86.1%
- inhibition at 100 µM ([4]; read-out: % inhibition n2): 94.5%

Compound: CCCCNc1ccc(C(=O)OCCN(C)C)cc1 [Tetracaine]
- inhibition at 0.03 µM ([5]; read-out: % inhibition mean): 6.44%
- inhibition at 0.03 µM ([5]; read-out: % inhibition n1): 6.26%
- inhibition at 0.03 µM ([5]; read-out: % inhibition n2): 6.62%
- inhibition at 0.3 µM ([5]; read-out: % inhibition mean): 27.2%
- inhibition at 0.3 µM ([5]; read-out: % inhibition n1): 28.8%
- inhibition at 0.3 µM ([5]; read-out: % inhibition n2): 25.6%
- inhibition at 3 µM ([5]; read-out: % inhibition mean): 71.3%
- inhibition at 3 µM ([5]; read-out: % inhibition n1): 74.2%
- inhibition at 3 µM ([5]; read-out: % inhibition n2): 68.5%
- inhibition at 30 µM ([5]; read-out: % inhibition mean): 91.3%
- inhibition at 30 µM ([5]; read-out: % inhibition n1): 93.8%
- inhibition at 30 µM ([5]; read-out: % inhibition n2): 88.8%
- inhibition at 300 µM ([5]; read-out: % inhibition mean): 95.9%
- inhibition at 300 µM ([5]; read-out: % inhibition n1): 96.6%
- inhibition at 300 µM ([5]; read-out: % inhibition n2): 95.2%
